Laboratory results: PubChem BioAssay (NCI)
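Exposure lasted 48 hours, with cells grown in 96-well plates and compounds tested at five concentrations. TGI is the concentration that stops growth completely.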

Legend:
Test in all cases: NCI-60 cell line screen, 48 h
[1] = test system: RXF-631 renal
[2] = test system: OVCAR-5 ovarian
[3] = test system: NCI-H23 lung
[4] = test system: K-562 leukemia
[5] = test system: CCRF-CEM leukemia
[6] = test system: SF-295 CNS
[7] = test system: SW-620 colon
[8] = test system: NCI-H460 lung
[9] = test system: ACHN renal
[10] = test system: NCI-H226 lung
[11] = test system: CAKI-1 renal
[12] = test system: RXF 393 renal
[13] = test system: MALME-3M melanoma
[14] = test system: SN12C renal
[15] = test system: HOP-92 NSCLC
[16] = test system: OVCAR-3 ovarian
[17] = test system: HCT-15 colon
[18] = test system: 786-0 renal
[19] = test system: M19-MEL melanoma
[20] = test system: IGROV1 ovarian
[21] = test system: HT29 colon
[22] = test system: KM12 colon
[23] = test system: MOLT-4 leukemia
[24] = test system: A549 NSCLC
[25] = test system: OVCAR-8 ovarian
[26] = test system: HCC-2998 colon
[27] = test system: TK-10 renal
[28] = test system: SK-OV-3 ovarian
[29] = test system: LXFL 529 NSCLC
[30] = test system: NCI-H522 lung
[31] = test system: U251 CNS
[32] = test system: SK-MEL-2 melanoma
[33] = test system: SNB-19 CNS
[34] = test system: UACC-62 melanoma
[35] = test system: SF-539 CNS
[36] = test system: LOX IMVI melanoma
[37] = test system: DMS 273 small cell lung
[38] = test system: M14 melanoma
[39] = test system: KM20L2 colon
[40] = test system: SF-268 CNS
[41] = test system: XF 498 CNS
[42] = test system: UACC-257 melanoma
[43] = test system: DLD-1 colon
[44] = test system: HOP-62 NSCLC
[45] = test system: RPMI-8226 leukemia
[46] = test system: EKVX NSCLC
[47] = test system: SNB-75 CNS
[48] = test system: COLO 205 colon
[49] = test system: DMS 114 small cell lung
[50] = test system: OVCAR-4 ovarian
[51] = test system: SR leukemia
[52] = test system: SNB-78 CNS
[53] = test system: SK-MEL-28 melanoma
[54] = test system: HL-60(TB) leukemia
[55] = test system: SK-MEL-5 melanoma
[56] = test system: UO-31 renal

Measured: TGI

Cn1cc(C(=O)c2ccccc2)cc(C(=O)c2ccccc2)c1=O
> 100 µM: all assays above
